Laboratory results from patent US12428406B2 (PMV Pharmaceuticals, Inc., priority 2019, dated 2025).

Molecular target: T1, p53 Y220C (Homo sapiens, UniProt P04637, Y220C)
T1 construct: The recombinant protein was a truncation mutant containing only amino acids 94-312 of p53; made in house; host or cells: E. coli
Experiment: In vitro DNA binding activity assay (HTRF / TR-FRET): stabilization of p53 Y220C and increase of its DNA binding activity
Format: biochemical
Details: recombinant His-tagged p53 Y220C DNA binding domain (aa 94-312), biotin-labeled consensus DNA, incubated at 27° C. or 29° C. for 60 min
Summary of the method: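 Compounds from 4.5 mM DMSO stocks, 3-fold serial dilutions; room-temperature incubations of 15 and 20 min. SC150 = concentration raising DNA binding by 50% over no-compound control.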

T1 sequence (P04637 94-312, change not shown): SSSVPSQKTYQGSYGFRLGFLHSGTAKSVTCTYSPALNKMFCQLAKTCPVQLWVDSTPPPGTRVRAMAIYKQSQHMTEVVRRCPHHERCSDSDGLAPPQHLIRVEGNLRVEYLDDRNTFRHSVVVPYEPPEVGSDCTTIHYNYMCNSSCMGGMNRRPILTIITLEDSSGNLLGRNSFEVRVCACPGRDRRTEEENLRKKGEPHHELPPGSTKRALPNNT

With `COC(=O)c1ccc(NCC#Cc2cc3c(N[C@H]4CCN(CC(N)=O)C[C@H]4F)cccc3n2CC(F)(F)F)c(OC)c1` [Compound 915A, methyl 4-{[3-(4-{[(3R,4S)-1-(carbamoylmethyl)-3-fluoropiperidin-4-yl]amino}-1-(2,2,2-trifluoroethyl)-1H-indol-2-yl)prop-2-yn-1-yl]amino}-3-methoxybenzoate] as the compound, how does the “SC150 (concentration of the compound required to increase the DNA binding activity by 50%)” value read?
Its value is “+ (+ = 0 μM ≤ SC150 < 0.05 μM)”.

With `COc1cc(C(=O)Nc2nccs2)ccc1NCC#Cc1cc2c(N[C@@H]3CCN(C)C[C@@H]3F)cccc2n1CC(F)(F)F` [Compound 917A] as the compound, how does the “SC150 (concentration of the compound required to increase the DNA binding activity by 50%)” value read?
The value was “+ (+ = 0 μM ≤ SC150 < 0.05 μM)”.

How did the “SC150 (concentration of the compound required to increase the DNA binding activity by 50%)” value turn out when `COc1cc(C(=O)N2CCC(O)CC2)ccc1NCC#Cc1cc2c(N[C@@H]3CCN(C)C[C@@H]3F)cccc2n1CC(F)(F)F` [Compound 919A] was run?
The value was “+ (+ = 0 μM ≤ SC150 < 0.05 μM)”.

With `COc1cc(C(=O)O)ccc1NCC#Cc1cc2c(N[C@@H]3CCN(CC(=O)N(C)C)C[C@@H]3F)cccc2n1CC(F)(F)F` [Compound 920A, 4-{[3-(4-{[(3S,4R)-1-[(dimethylcarbamoyl)methyl]-3-fluoropiperidin-4-yl]amino}-1-(2,2,2-trifluoroethyl)-1H-indol-2-yl)prop-2-yn-1-yl]amino}-3-methoxybenzoic acid] as the compound, how does the “SC150 (concentration of the compound required to increase the DNA binding activity by 50%)” value read?
Its value is “+ (+ = 0 μM ≤ SC150 < 0.05 μM)”.

How did the “SC150 (concentration of the compound required to increase the DNA binding activity by 50%)” value turn out when `CCS(=O)(=O)c1ccc(NCC#Cc2cc3c(N[C@@H]4CCN(C(=O)OC(C)(C)C)C[C@@H]4F)cccc3n2CC(F)(F)F)c(OC)c1` [Compound 922A, tert-butyl (3S,4R)-4-{[2-(3-{[4-(ethanesulfonyl)-2-methoxyphenyl]amino}prop-1-yn-1-yl)-1-(2,2,2-trifluoroethyl)-1H-indol-4-yl]amino}-3-fluoropiperidine-1-carboxylate] was run?
The value was “++ (++ = 0.05 μM ≤ SC150 < 0.1 μM)”.

Which “SC150 (concentration of the compound required to increase the DNA binding activity by 50%)” value does the source give for `COc1cc(C(=O)NCCN2CCOCC2)ccc1NCC#Cc1cc2c(N[C@@H]3CCN(C)C[C@@H]3F)cccc2n1CC(F)(F)F` [Compound 924A, 4-{[3-(4-{[(3S,4R)-3-fluoro-1-methylpiperidin-4-yl]amino}-1-(2,2,2-trifluoroethyl)-1H-indol-2-yl)prop-2-yn-1-yl]amino}-3-methoxy-N-[2-(morpholin-4-yl)ethyl]benzamide] here?
The value was “+ (+ = 0 μM ≤ SC150 < 0.05 μM)”.

`COc1cc(C(=O)O)ccc1NCC#Cc1cc2c(N[C@H]3CCN(CC(N)=O)C[C@H]3F)cccc2n1CC(F)(F)F` [Compound 925A] was tested. Which “SC150 (concentration of the compound required to increase the DNA binding activity by 50%)” value did it give?
The value was “+ (+ = 0 μM ≤ SC150 < 0.05 μM)”.

For `COc1cc(C(=O)O)ccc1NCC#Cc1cc2c(N[C@@H]3CCN(CC(N)=O)C[C@@H]3F)cccc2n1CC(F)(F)F` [Compound 926A], which “SC150 (concentration of the compound required to increase the DNA binding activity by 50%)” value is on record?
Its value is “+ (+ = 0 μM ≤ SC150 < 0.05 μM)”.

`COc1cc(C(=O)O)ccc1NCC#Cc1cc2c(N[C@H]3CCN(CC(=O)N(C)C)C[C@H]3F)cccc2n1CC(F)(F)F` [Compound 927A, 4-{[3-(4-{[(3R,4S)-1-[(dimethylcarbamoyl)methyl]-3-fluoropiperidin-4-yl]amino}-1-(2,2,2-trifluoroethyl)-1H-indol-2-yl)prop-2-yn-1-yl]amino}-3-methoxybenzoic acid] was tested. Which “SC150 (concentration of the compound required to increase the DNA binding activity by 50%)” value did it give?
The value was “+ (+ = 0 μM ≤ SC150 < 0.05 μM)”.

How did the “SC150 (concentration of the compound required to increase the DNA binding activity by 50%)” value turn out when `COc1cc(C(=O)N[C@@H](CCC(=O)O)C(=O)O)ccc1NCC#Cc1cc2c(N[C@@H]3CCN(C)C[C@@H]3F)cccc2n1CC(F)(F)F` [Compound 929A, (2S)-2-[(4-{[3-(4-{[(3S,4R)-3-fluoro-1-methylpiperidin-4-yl]amino}-1-(2,2,2-trifluoroethyl)-1H-indol-2-yl)prop-2-yn-1-yl]amino}-3-methoxyphenyl)formamido]pentanedioic acid] was run?
Its value is “+ (+ = 0 μM ≤ SC150 < 0.05 μM)”.

With `COc1cc(C(=O)N[C@@H](CCC(N)=O)C(=O)O)ccc1NCC#Cc1cc2c(N[C@@H]3CCN(C)C[C@@H]3F)cccc2n1CC(F)(F)F` [Compound 930A, (2S)-4-carbamoyl-2-[(4-{[3-(4-{[(3S,4R)-3-fluoro-1-methylpiperidin-4-yl]amino}-1-(2,2,2-trifluoroethyl)-1H-indol-2-yl)prop-2-yn-1-yl]amino}-3-methoxyphenyl)formamido]butanoic acid] as the compound, how does the “SC150 (concentration of the compound required to increase the DNA binding activity by 50%)” value read?
Its value is “+ (+ = 0 μM ≤ SC150 < 0.05 μM)”.

How did the “SC150 (concentration of the compound required to increase the DNA binding activity by 50%)” value turn out when `COc1cc(S(=O)(=O)O)ccc1NCC#Cc1cc2c(N[C@@H]3CCN(C)C[C@@H]3F)cccc2n1CC(F)(F)F` [Compound 931A, 4-{[3-(4-{[(3S,4R)-3-fluoro-1-methylpiperidin-4-yl]amino}-1-(2,2,2-trifluoroethyl)-1H-indol-2-yl)prop-2-yn-1-yl]amino}-3-methoxybenzene-1-sulfonic acid] was run?
Its value is “+ (+ = 0 μM ≤ SC150 < 0.05 μM)”.

For `COC(=O)CC[C@H](NC(=O)c1ccc(NCC#Cc2cc3c(N[C@@H]4CCN(C)C[C@@H]4F)cccc3n2CC(F)(F)F)c(OC)c1)C(=O)OC` [Compound 932A, 1,5-dimethyl (2S)-2-[(4-{[3-(4-{[(3S,4R)-3-fluoro-1-methylpiperidin-4-yl]amino}-1-(2,2,2-trifluoroethyl)-1H-indol-2-yl)prop-2-yn-1-yl]amino}-3-methoxyphenyl)formamido]pentanedioate], which “SC150 (concentration of the compound required to increase the DNA binding activity by 50%)” value is on record?
Its value is “+ (+ = 0 μM ≤ SC150 < 0.05 μM)”.

For `COc1cc(C(=O)N2CCC(N(C)C)CC2)ccc1NCC#Cc1cc2c(N[C@@H]3CCN(C)C[C@@H]3F)cccc2n1CC(F)(F)F` [Compound 933A, 2-[3-({4-[4-(dimethylamino)piperidine-1-carbonyl]-2-methoxyphenyl}amino)prop-1-yn-1-yl]-N-[(3S,4R)-3-fluoro-1-methylpiperidin-4-yl]-1-(2,2,2-trifluoroethyl)-1H-indol-4-amine], which “SC150 (concentration of the compound required to increase the DNA binding activity by 50%)” value is on record?
Its value is “+ (+ = 0 μM ≤ SC150 < 0.05 μM)”.

For `COc1cc(C(=O)O)ccc1NCC#Cc1cc2c(N[C@@H]3CCN(CC(=O)O)C[C@@H]3F)cccc2n1CC(F)(F)F` [Compound 934A, 4-{[3-(4-{[(3S,4R)-1-(carboxymethyl)-3-fluoropiperidin-4-yl]amino}-1-(2,2,2-trifluoroethyl)-1H-indol-2-yl)prop-2-yn-1-yl]amino}-3-methoxybenzoic acid], which “SC150 (concentration of the compound required to increase the DNA binding activity by 50%)” value is on record?
Its value is “+ (+ = 0 μM ≤ SC150 < 0.05 μM)”.

For `CCS(=O)(=O)c1ccc(NCC#Cc2cc3c(N[C@@H]4CCNC[C@@H]4F)cccc3n2CC(F)(F)F)c(OC)c1` [Compound 935A, 2-(3-{[4-(ethanesulfonyl)-2-methoxyphenyl]amino}prop-1-yn-1-yl)-N-[(3S,4R)-3-fluoropiperidin-4-yl]-1-(2,2,2-trifluoroethyl)-1H-indol-4-amine], which “SC150 (concentration of the compound required to increase the DNA binding activity by 50%)” value is on record?
The value was “+ (+ = 0 μM ≤ SC150 < 0.05 μM)”.

How did the “SC150 (concentration of the compound required to increase the DNA binding activity by 50%)” value turn out when `COc1cc(S(C)(=O)=O)ccc1NCC#Cc1cc2c(N[C@@H]3CC[C@H](N)C[C@H]3F)cccc2n1CC(F)(F)F` [Compound 936A] was run?
The value was “+ (+ = 0 μM ≤ SC150 < 0.05 μM)”.

Which “SC150 (concentration of the compound required to increase the DNA binding activity by 50%)” value does the source give for `CN[C@H]1CC[C@@H](Nc2cccc3c2cc(C#CCNc2ccc(S(C)(=O)=O)cc2OC)n3CC(F)(F)F)[C@H](F)C1` [Compound 937A] here?
Its value is “+ (+ = 0 μM ≤ SC150 < 0.05 μM)”.

How did the “SC150 (concentration of the compound required to increase the DNA binding activity by 50%)” value turn out when `COc1cc(S(C)(=O)=O)ccc1NCC#Cc1cc2c(N[C@@H]3CC[C@H](N(C)C)C[C@H]3F)cccc2n1CC(F)(F)F` [Compound 938A] was run?
Its value is “+ (+ = 0 μM ≤ SC150 < 0.05 μM)”.

How did the “SC150 (concentration of the compound required to increase the DNA binding activity by 50%)” value turn out when `COc1cc(S(=O)(=O)CCO)ccc1NCC#Cc1cc2c(N[C@@H]3CCN(C)C[C@@H]3F)cccc2n1CC(F)(F)F` [Compound 939A, 2-(4-{[3-(4-{[(3S,4R)-3-fluoro-1-methylpiperidin-4-yl]amino}-1-(2,2,2-trifluoroethyl)-1H-indol-2-yl)prop-2-yn-1-yl]amino}-3-methoxybenzenesulfonyl)ethan-1-ol] was run?
The value was “+ (+ = 0 μM ≤ SC150 < 0.05 μM)”.

`CCNC(=O)c1ccc(NCC#Cc2cc3c(N[C@@H]4CCN(C)C[C@@H]4F)cccc3n2CC(F)(F)F)c(OC)c1` [Compound 940A, N-ethyl-4-{[3-(4-{[(3S,4R)-3-fluoro-1-methylpiperidin-4-yl]amino}-1-(2,2,2-trifluoroethyl)-1H-indol-2-yl)prop-2-yn-1-yl]amino}-3-methoxybenzamide] was tested. Which “SC150 (concentration of the compound required to increase the DNA binding activity by 50%)” value did it give?
Its value is “+ (+ = 0 μM ≤ SC150 < 0.05 μM)”.

How did the “SC150 (concentration of the compound required to increase the DNA binding activity by 50%)” value turn out when `CCOc1cc(S(C)(=O)=O)ccc1NCC#Cc1cc2c(N[C@@H]3CCNC[C@@H]3F)cccc2n1CC(F)(F)F` [Compound 941A, 2-{3-[(2-ethoxy-4-methanesulfonylphenyl)amino]prop-1-yn-1-yl}-N-[(3S,4R)-3-fluoropiperidin-4-yl]-1-(2,2,2-trifluoroethyl)-1H-indol-4-amine] was run?
Its value is “+ (+ = 0 μM ≤ SC150 < 0.05 μM)”.

With `COc1cc(C(=O)N(C)C)ccc1NCC#Cc1cc2c(N[C@@H]3CCN(C)C[C@@H]3F)cccc2n1CC(F)(F)F` [Compound 942A, 4-{[3-(4-{[(3S,4R)-3-fluoro-1-methylpiperidin-4-yl]amino}-1-(2,2,2-trifluoroethyl)-1H-indol-2-yl)prop-2-yn-1-yl]amino}-3-methoxy-N,N-dimethylbenzamide] as the compound, how does the “SC150 (concentration of the compound required to increase the DNA binding activity by 50%)” value read?
Its value is “+ (+ = 0 μM ≤ SC150 < 0.05 μM)”.

How did the “SC150 (concentration of the compound required to increase the DNA binding activity by 50%)” value turn out when `COc1cc(C(=O)N(C)C(C)C)ccc1NCC#Cc1cc2c(N[C@@H]3CCN(C)C[C@@H]3F)cccc2n1CC(F)(F)F` [Compound 944A, 4-{[3-(4-{[(3S,4R)-3-fluoro-1-methylpiperidin-4-yl]amino}-1-(2,2,2-trifluoroethyl)-1H-indol-2-yl)prop-2-yn-1-yl]amino}-3-methoxy-N-methyl-N-(propan-2-yl)benzamide] was run?
Its value is “+ (+ = 0 μM ≤ SC150 < 0.05 μM)”.
